Reference: US20070014718A1, “Kits for gastric emptying measurement” (Atomic Energy Council - Institute of Nuclear Energy Research, priority 2005, published 2007)
Read-outs that look alike come from different tables or passages of the source.

Tests used:
[1] = In-vitro gastric simulation: isotope tracer retention in solid phase of test meal; assay type: in vitro ADME; conditions: mimic gastric fluid
Description: After chewing the test meal, it is put into a semi-permeable membrane (Spectra/PorMembrane MWCO 3,500, 54 mm×150 mm) incubated and shook with a simulated gastric juice (2 g (gram) of sodium chloride; 3.2 g of pepsin; and, 7 mL of HCl in 1000 mL, pH 1.2) at 37±2° C. having different time intervals. 5 mL aliquot of the liquid phase were removed at regular 60 min intervals, centrifuged and aliquots of the supernatants removed for C-13 glycine quantification with Liquid Chromatography/Mass Spectrometry.
To assess the extent of Tc-99 m phytate retention in the solid phase of the test meal, a simulated gastric digest is made. A muffin is prepared as described above with 1 mCi of a Tc-99 m phytate, which is equivalent to 156.25 μg (microgram) with a specific activity of 10.06 mCi/μmol (μmol, micromolar) mixed with the dry mix 1 and water. […] 5 mL aliquot of the liquid phase were removed at regular 60 min intervals, centrifuged and aliquots of the supernatants removed for liquid scintillation counting Results are then expressed as a percentage, P %, of the initial amount of a radioactivity added. […]

[2] = Shelf-life / chemical stability on storage; assay type: physicochemical; conditions: stored at a room temperature
From the text: Please refer to FIG. 1 and FIG. 2, which are views showing a kit for a gastric emptying measurement and isotope tracer retention in a solid phase of a test meal, according to the present invention, where isotope tracer retention percentage is obtained in FIG. 2 in vitro gastric digest at pH 2.3 to imitate the gastric condition after administering the test meal. […] A standardized recipe is provided to clinicians in the test meal, which has fixed proportions of carbohydrate, protein, and fat. The raw ingredients in the test meal include a lyophilized egg flour. The characteristic is that the isotope tracer 2 is coagulated with albumin of the egg flour into a solid form at more than 75° C., which means the isotope tracer is well incorporated into a food product. More than 90% of the isotope tracer is retained in a mimic gastric fluid at 35˜39° C. for three hours. […] More than 98% of the Tc-99 m phytate is retained in a mimic gastric fluid at 35˜39° C. for 4 hours. More than 90% of the Tc-99 m DTPA is retained in a mimic gastric fluid at 35˜39° C. for 3 hours The dry mix 1 comprises egg powder (7.4%), all purpose flour (19.6%), glutinous rice powder (3.9%), whole milk powder (35.7%), levulose (fructose) flour (8%), foaming powder (3%), cream powder (22%), cream fragrance powder (0.2%), and salt (0.2%), having a most preferred calorie of about 289.5±12.5 kcal. […]

[3] = for % ^13C (dose/hr): breath, patient X, 50 mg
Description: The test meal is administered after an overnight fast along with 100 mL of water within 10 minutes. The first one of the breath samples is collected before the test meal is administered so that a baseline is obtained. And the rest of the breath samples are collected with an 15-minute intervals during 4 hours after the test meal is administered. A measurement can be conveniently done using an isotope ratio mass spectrometer. The results obtained are then expressed in a δ^13C value (^13C/^12C). […] The ^13CO2 excretion parameters are derived from the chi-square distribution in statistics and the equation is expressed as follows. CD=m(1−e^−kt)^β , where CD is the cumulative percentage of the administered dose; t is the time; and, m is the total cumulative percentage of the dose recovered.
A non-linear regression analysis is performed on the originally measured data to obtain values of the m, k, and β for each individual breath test.
The half emptying time is calculated by making CD equal to m/2 in the CD equation: [formula] B. Lag Phase:
The lag phase for the breath test has been defined, which is expressed as follows: tlag=1/k ln β
The % ^13C dose/hr is calculated by the following equation Eq. 1: [formula] • The definition of mmol ^13C excess in breath (a) and mmol ^13C excess administered (b) were shown below: [formula] • 0.0112372 is the ratio of ^13C/^12C of PDB • % ^13Ct and % ^13Ct0: the concentration of ^13C at time t and t0 (i.e. time zero) • δt=δ^13C value at time t (% ^13Ct−% ^13Ct0) is also called “^13C atom percent excess” [formula] • % ^13Csubstr.=% ^13C present in substrate • M=molar mass of substrate • m=amount of substrate • n=number of atoms, ^13C-labelled • (13) The % ^13C cumulative dose is derived numerically from the % ^13C dose/hr data and is calculated from the following Eq. 2, which informs about the global process. [formula] • n=number of samples per hour • n=4, if a breath sample is taken every 15 minutes • ti=time i
• (14) Mathematically analyzing the ^13CO2 excretion curves with a Sigma plot software. […] All of these parameters were determined by a non-linear regression analysis. The half emptying time is calculated by making CD equal to m/2 in the CD equation and being defined by [formula] • . […] The lag phase for the breath test is expressed as tlag=1/k ln β (Eq. 4).

For `O=C([O-])CN(CCN(CC(=O)[O-])CC(=O)[O-])CCN(CC(=O)[O-])CC(=O)[O-].[99Tc+4]` [Tc-99 m DTPA, Tc-99 m DTPA (diethyl-triamine-pentaacetic acid)], the “isotope tracer retained (incorporated) in the test meal” value ([1]; 35˜39° C. (37±2° C.), 4 hours) was “more than 87%” and the “isotope tracer retained in the test meal” value ([1]; 35˜39° C., 3 hours) was “More than 90%”.
In the case of `NC[13C](=O)O` [^13C glycine], the shelf-life [2] is reported as “more than 5 year”, the “% ^13C (dose/hr)” value ([3]; sampling time 15 min) is reported as 1.104 % ^13C dose/hr and the “% ^13C (dose/hr)” value ([3]; sampling time 30 min) is reported as 2.802 % ^13C dose/hr. For the same compound, the “% ^13C (dose/hr)” value ([3]; sampling time 45 min) was 3.905 % ^13C dose/hr, the “% ^13C (dose/hr)” value ([3]; sampling time 60 min) was 4.754 % ^13C dose/hr and the “% ^13C (dose/hr)” value ([3]; sampling time 75 min) was 5.603 % ^13C dose/hr. The “% ^13C (dose/hr)” value ([3]; sampling time 90 min) was 5.093 % ^13C dose/hr, the “% ^13C (dose/hr)” value ([3]; sampling time 105 min) was 5.857 % ^13C dose/hr and the “% ^13C (dose/hr)” value ([3]; sampling time 120 min) was 6.027 % ^13C dose/hr. For the same compound, the “% ^13C (dose/hr)” value ([3]; sampling time 135 min) was 6.706 % ^13C dose/hr, the “% ^13C (dose/hr)” value ([3]; sampling time 150 min) was 5.857 % ^13C dose/hr and the “% ^13C (dose/hr)” value ([3]; sampling time 165 min) was 5.263 % ^13C dose/hr. For the same compound, the “% ^13C (dose/hr)” value ([3]; sampling time 180 min) was 4.414 % ^13C dose/hr, the “% ^13C (dose/hr)” value ([3]; sampling time 195 min) was 3.65 % ^13C dose/hr and the “% ^13C (dose/hr)” value ([3]; sampling time 210 min) was 3.65 % ^13C dose/hr. The “% ^13C (dose/hr)” value ([3]; sampling time 225 min) was 3.056 % ^13C dose/hr, the “% ^13C (dose/hr)” value ([3]; sampling time 240 min) was 2.547 % ^13C dose/hr and the k ([3]; human, in vivo) was 0.0101. The “m (total cumulative percentage of the dose recovered)” value ([3]; human, in vivo) was 22.844 and the β ([3]; human, in vivo) was 2.8256.
